Assay results taken from patent US20130331412A9, “Pharmaceutical Compositions and Administrations Thereof” (VERTEX PHARMACEUTICALS INCORPORATED, priority 2010, published 2013).

Columns and labels:
Assay type in all cases: cell-based
ΔF508-CFTR = molecular target: T1, ΔF508-CFTR (Homo sapiens, UniProt P13569, DEL508-508); assay: Membrane potential optical assay for ΔF508-CFTR potentiation (FLIPR III); conditions: relative efficacy; ΔF508-CFTR NIH 3T3 cells
T1 construct: expressed in transfected cells; host or cells: NIH3T3 mouse fibroblasts
Excerpt: The assay utilizes fluorescent voltage sensing dyes to measure changes in membrane potential using a fluorescent plate reader (e.g., FLIPR III, Molecular Devices, Inc.) as a readout for increase in functional ΔF508-CFTR in NIH 3T3 cells. The driving force for the response is the creation of a chloride ion gradient in conjunction with channel activation by a single liquid addition step after the cells have previously been treated with compounds and subsequently loaded with a voltage sensing dye. To identify potentiators of ΔF508-CFTR, a double-addition HTS assay format was developed. This HTS assay utilizes fluorescent voltage sensing dyes to measure changes in membrane potential on the FLIPR III as a measurement for increase in gating (conductance) of ΔF508 CFTR in temperature-corrected ΔF508 CFTR NIH 3T3 cells. The driving force for the response is a Cl^− ion gradient in conjunction with channel activation with forskolin in a single liquid addition step using a fluorescent plate reader such as FLIPR III after the cells have previously been treated with potentiator compounds (or DMSO vehicle control) and subsequently loaded with a redistribution dye. Bath Solution #1: (in mM) NaCl 160, KCl 4.5, CaCl2 2, MgCl2 1, HEPES10, pH 7.4 with NaOH. Chloride-free bath solution: Chloride salts in Bath Solution #1 (above) are substituted with gluconate salts. […]

human CFTR mutant P67L = molecular target: T2, human CFTR mutant P67L (Homo sapiens, UniProt P13569, P67L); assay: FRT cell Ussing chamber chloride transport assay; conditions: FRT cells expressing P67L CFTR
T2 construct: expressed in transfected cells; host or cells: Fisher rat thyroid (FRT) FlpIn cells, pcDNA5/FRT
Excerpt: (§1) DNA cloning: Wild-type CFTR coding region was inserted into pcDNA5/FRT (Invitrogen, San Diego, Calif.) between EcoRV and ApaI.
(§2) Single CFTR gene mutations were introduced into the wild-type CFTR coding sequence by using QuickChange XL site-directed mutagenesis kit (Stratagene, Cambridge, UK). The CFTR coding region as well as its promoter sequence and 3′ untranslated sequence was fully sequenced to confirm the mutagenesis reaction.
(§3) The CFTR gene was stably expressed in Fisher rat thyroid (FRT) cells through FlpIn system. The FRT-FlpIn host cell line was generated by stably transfecting FRT cells with pFRT/lacZeo. The single integration of a FRT site was confirmed by Southern blot. After the mutant CFTR DNA was transfected into the FRT-FlpIn host cell line, the cells were incubate at 37° C. in Coon's modified Ham's F12 containing 10% FBS, 1% Pen/Strep, and 36 ml of Na− Bicarbonate for up to 8 passages under hygromycin selection (200 ug/ml).
(§4) All cells were grown on Costar® Snapwell™ cell culture inserts at maintained at 37° C. prior to recording. The cell culture inserts were mounted into an Ussing chamber (VCC MC8; Physiologic Instruments, Inc., San Diego, Calif.) to record ISC in the voltage-clamp mode (Vhold=0 mV). For FRT cells, the basolateral membrane was permeabilized with 360 μg/ml Nystatin and a basolateral to apical Cl− gradient was established. The basolateral bath solution contained (in mM); 135 NaCl, 1.2 CaCl2, 1.2 MgCl2, 2.4 K2HPO4, 0.6 KHPO4, 10 N-2-hydroxyethylpiperazine-N′-2-ethanesulfonic acid (HEPES), and 10 dextrose (titrated to pH 7.4 with NaOH). The apical NaCl was replaced by equimolar Na+ gluconate (titrated to pH 7.4 with NaOH). For HBE cells, the ISC was measured in the presence of a basolateral to apical Cl− gradient. The normal Cl− solution contained (in mM) 145 NaCl, 3.3 K2HPO4, 1.2 MgCl2, 1.2 CaCl2, 10 Glucose, 10 HEPES (pH adjusted to 7.35 with NaOH) and the low Cl− solution contained (in mM) 145 NaGluconate, 1.2 MgCl2, 1.2 CaCl2, 10 glucose, 10 HEPES (pH adjusted to 7.35 with NaOH). All recordings were digitally acquired using a Acquire and Analyze software (version 2; Physiologic Instruments, Inc. San Diego, Calif.).
(§5) The 10 μM forskolin stimulated response in FRT cell expressing different mutant CFTR forms or in HBE cells isolated from CF patients was normalized to the 10 μM forskolin-stimulated response in FRT cells expressing wild-type CFTR or in HBE isolated from non-CF individuals and expressed as % wild-type CFTR. In HBE, amiloride was added prior to forskolin application to block the epithelial Na+ channel.

human CFTR mutant D579G = molecular target: T3, human CFTR mutant D579G (Homo sapiens, UniProt P13569, D579G); assay: FRT cell Ussing chamber chloride transport assay; conditions: FRT cells expressing D579G CFTR
T3 construct: expressed in transfected cells; host or cells: Fisher rat thyroid (FRT) FlpIn cells, pcDNA5/FRT
Excerpt: as §1, §2, §3, §4, §5

human CFTR mutant G1244E = molecular target: T4, human CFTR mutant G1244E (Homo sapiens, UniProt P13569, G1244E); assay: FRT cell Ussing chamber chloride transport assay; conditions: FRT cells expressing G1244E CFTR
T4 construct: expressed in transfected cells; host or cells: Fisher rat thyroid (FRT) FlpIn cells, pcDNA5/FRT
Excerpt: as §1, §2, §3, §4, §5

human CFTR mutant D110H = molecular target: T5, human CFTR mutant D110H (Homo sapiens, UniProt P13569, D110H); assay: FRT cell Ussing chamber chloride transport assay; conditions: FRT cells expressing D110H CFTR
T5 construct: expressed in transfected cells; host or cells: Fisher rat thyroid (FRT) FlpIn cells, pcDNA5/FRT
Excerpt: as §1, §2, §3, §4, §5

human CFTR mutant E56K = molecular target: T6, human CFTR mutant E56K (Homo sapiens, UniProt P13569, E56K); assay: FRT cell Ussing chamber chloride transport assay; conditions: FRT cells expressing E56K CFTR
T6 construct: expressed in transfected cells; host or cells: Fisher rat thyroid (FRT) FlpIn cells, pcDNA5/FRT
Excerpt: as §1, §2, §3, §4, §5

human CFTR mutant S1235R = molecular target: T7, human CFTR mutant S1235R (Homo sapiens, UniProt P13569, S1235R); assay: FRT cell Ussing chamber chloride transport assay; conditions: FRT cells expressing S1235R CFTR
T7 construct: expressed in transfected cells; host or cells: Fisher rat thyroid (FRT) FlpIn cells, pcDNA5/FRT
Excerpt: as §1, §2, §3, §4, §5

human CFTR mutant S1255P = molecular target: T8, human CFTR mutant S1255P (Homo sapiens, UniProt P13569, S1255P); assay: FRT cell Ussing chamber chloride transport assay; conditions: FRT cells expressing S1255P CFTR
T8 construct: expressed in transfected cells; host or cells: Fisher rat thyroid (FRT) FlpIn cells, pcDNA5/FRT
Excerpt: as §1, §2, §3, §4, §5

human CFTR mutant G178R = molecular target: T9, human CFTR mutant G178R (Homo sapiens, UniProt P13569, G178R); assay: FRT cell Ussing chamber chloride transport assay; conditions: FRT cells expressing G178R CFTR
T9 construct: expressed in transfected cells; host or cells: Fisher rat thyroid (FRT) FlpIn cells, pcDNA5/FRT
Excerpt: as §1, §2, §3, §4, §5

human CFTR mutant F1074L = molecular target: T10, human CFTR mutant F1074L (Homo sapiens, UniProt P13569, F1074L); assay: FRT cell Ussing chamber chloride transport assay; conditions: FRT cells expressing F1074L CFTR
T10 construct: expressed in transfected cells; host or cells: Fisher rat thyroid (FRT) FlpIn cells, pcDNA5/FRT
Excerpt: as §1, §2, §3, §4, §5

human CFTR mutant R347H = molecular target: T11, human CFTR mutant R347H (Homo sapiens, UniProt P13569, R347H); assay: FRT cell Ussing chamber chloride transport assay; conditions: FRT cells expressing R347H CFTR
T11 construct: expressed in transfected cells; host or cells: Fisher rat thyroid (FRT) FlpIn cells, pcDNA5/FRT
Excerpt: as §1, §2, §3, §4, §5

human CFTR mutant S549N = molecular target: T12, human CFTR mutant S549N (Homo sapiens, UniProt P13569, S549N); assay: FRT cell Ussing chamber chloride transport assay; conditions: FRT cells expressing S549N CFTR
T12 construct: expressed in transfected cells; host or cells: Fisher rat thyroid (FRT) FlpIn cells, pcDNA5/FRT
Excerpt: as §1, §2, §3, §4, §5

human CFTR mutant S549R = molecular target: T13, human CFTR mutant S549R (Homo sapiens, UniProt P13569, S549R); assay: FRT cell Ussing chamber chloride transport assay; conditions: FRT cells expressing S549R CFTR
T13 construct: expressed in transfected cells; host or cells: Fisher rat thyroid (FRT) FlpIn cells, pcDNA5/FRT
Excerpt: as §1, §2, §3, §4, §5

T12 sequence (P13569 whole entry S549N): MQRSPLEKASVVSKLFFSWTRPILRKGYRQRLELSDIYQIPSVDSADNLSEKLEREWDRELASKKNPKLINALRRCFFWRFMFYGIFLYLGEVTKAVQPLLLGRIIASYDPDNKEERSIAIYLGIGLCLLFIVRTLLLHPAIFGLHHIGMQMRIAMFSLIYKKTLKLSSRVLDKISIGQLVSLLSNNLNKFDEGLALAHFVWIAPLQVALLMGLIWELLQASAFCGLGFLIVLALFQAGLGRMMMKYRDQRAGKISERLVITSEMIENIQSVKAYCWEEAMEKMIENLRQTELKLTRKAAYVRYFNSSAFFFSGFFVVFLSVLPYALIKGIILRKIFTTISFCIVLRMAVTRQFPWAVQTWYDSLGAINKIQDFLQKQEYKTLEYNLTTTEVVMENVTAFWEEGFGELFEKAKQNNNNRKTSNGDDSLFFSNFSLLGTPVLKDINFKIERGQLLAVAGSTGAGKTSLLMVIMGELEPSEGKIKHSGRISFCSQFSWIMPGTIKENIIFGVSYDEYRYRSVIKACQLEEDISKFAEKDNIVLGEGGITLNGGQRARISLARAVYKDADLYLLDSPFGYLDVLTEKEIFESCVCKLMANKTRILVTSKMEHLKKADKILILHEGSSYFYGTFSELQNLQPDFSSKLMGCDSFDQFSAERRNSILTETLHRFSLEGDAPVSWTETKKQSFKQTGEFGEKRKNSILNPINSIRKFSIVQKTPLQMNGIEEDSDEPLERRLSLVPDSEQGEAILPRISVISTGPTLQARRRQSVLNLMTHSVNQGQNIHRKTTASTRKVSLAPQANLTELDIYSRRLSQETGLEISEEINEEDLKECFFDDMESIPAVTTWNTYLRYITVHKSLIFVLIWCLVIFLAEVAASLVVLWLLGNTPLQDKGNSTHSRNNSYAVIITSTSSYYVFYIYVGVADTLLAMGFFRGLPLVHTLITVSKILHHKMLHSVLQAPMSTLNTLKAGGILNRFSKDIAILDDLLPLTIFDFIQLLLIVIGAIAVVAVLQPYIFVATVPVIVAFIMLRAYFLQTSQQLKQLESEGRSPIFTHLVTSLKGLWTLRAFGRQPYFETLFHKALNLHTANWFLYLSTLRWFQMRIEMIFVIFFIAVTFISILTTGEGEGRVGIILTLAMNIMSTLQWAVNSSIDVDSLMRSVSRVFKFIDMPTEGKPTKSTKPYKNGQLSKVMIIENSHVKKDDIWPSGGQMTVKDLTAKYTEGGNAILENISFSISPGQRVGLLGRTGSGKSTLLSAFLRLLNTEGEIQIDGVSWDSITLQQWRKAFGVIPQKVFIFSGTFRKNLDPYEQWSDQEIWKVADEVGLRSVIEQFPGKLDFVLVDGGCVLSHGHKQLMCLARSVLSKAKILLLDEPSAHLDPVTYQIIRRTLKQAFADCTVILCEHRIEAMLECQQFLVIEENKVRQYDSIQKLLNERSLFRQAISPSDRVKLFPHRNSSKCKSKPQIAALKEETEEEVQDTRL
T13 sequence (P13569 whole entry S549R): as the sequence (P13569 whole entry S549N) above, with N549R counted along it
T3 sequence (P13569 whole entry D579G): as the sequence (P13569 whole entry S549N) above, with N549S, D579G counted along it
T9 sequence (P13569 whole entry G178R): as the sequence (P13569 whole entry S549N) above, with G178R, N549S counted along it
T7 sequence (P13569 whole entry S1235R): as the sequence (P13569 whole entry S549N) above, with N549S, S1235R counted along it
T6 sequence (P13569 whole entry E56K): as the sequence (P13569 whole entry S549N) above, with E56K, N549S counted along it
T10 sequence (P13569 whole entry F1074L): as the sequence (P13569 whole entry S549N) above, with N549S, F1074L counted along it
T11 sequence (P13569 whole entry R347H): as the sequence (P13569 whole entry S549N) above, with R347H, N549S counted along it
T2 sequence (P13569 whole entry P67L): as the sequence (P13569 whole entry S549N) above, with P67L, N549S counted along it
T4 sequence (P13569 whole entry G1244E): as the sequence (P13569 whole entry S549N) above, with N549S, G1244E counted along it
T1 sequence (P13569 with tags, fused parts or gaps DEL508-508): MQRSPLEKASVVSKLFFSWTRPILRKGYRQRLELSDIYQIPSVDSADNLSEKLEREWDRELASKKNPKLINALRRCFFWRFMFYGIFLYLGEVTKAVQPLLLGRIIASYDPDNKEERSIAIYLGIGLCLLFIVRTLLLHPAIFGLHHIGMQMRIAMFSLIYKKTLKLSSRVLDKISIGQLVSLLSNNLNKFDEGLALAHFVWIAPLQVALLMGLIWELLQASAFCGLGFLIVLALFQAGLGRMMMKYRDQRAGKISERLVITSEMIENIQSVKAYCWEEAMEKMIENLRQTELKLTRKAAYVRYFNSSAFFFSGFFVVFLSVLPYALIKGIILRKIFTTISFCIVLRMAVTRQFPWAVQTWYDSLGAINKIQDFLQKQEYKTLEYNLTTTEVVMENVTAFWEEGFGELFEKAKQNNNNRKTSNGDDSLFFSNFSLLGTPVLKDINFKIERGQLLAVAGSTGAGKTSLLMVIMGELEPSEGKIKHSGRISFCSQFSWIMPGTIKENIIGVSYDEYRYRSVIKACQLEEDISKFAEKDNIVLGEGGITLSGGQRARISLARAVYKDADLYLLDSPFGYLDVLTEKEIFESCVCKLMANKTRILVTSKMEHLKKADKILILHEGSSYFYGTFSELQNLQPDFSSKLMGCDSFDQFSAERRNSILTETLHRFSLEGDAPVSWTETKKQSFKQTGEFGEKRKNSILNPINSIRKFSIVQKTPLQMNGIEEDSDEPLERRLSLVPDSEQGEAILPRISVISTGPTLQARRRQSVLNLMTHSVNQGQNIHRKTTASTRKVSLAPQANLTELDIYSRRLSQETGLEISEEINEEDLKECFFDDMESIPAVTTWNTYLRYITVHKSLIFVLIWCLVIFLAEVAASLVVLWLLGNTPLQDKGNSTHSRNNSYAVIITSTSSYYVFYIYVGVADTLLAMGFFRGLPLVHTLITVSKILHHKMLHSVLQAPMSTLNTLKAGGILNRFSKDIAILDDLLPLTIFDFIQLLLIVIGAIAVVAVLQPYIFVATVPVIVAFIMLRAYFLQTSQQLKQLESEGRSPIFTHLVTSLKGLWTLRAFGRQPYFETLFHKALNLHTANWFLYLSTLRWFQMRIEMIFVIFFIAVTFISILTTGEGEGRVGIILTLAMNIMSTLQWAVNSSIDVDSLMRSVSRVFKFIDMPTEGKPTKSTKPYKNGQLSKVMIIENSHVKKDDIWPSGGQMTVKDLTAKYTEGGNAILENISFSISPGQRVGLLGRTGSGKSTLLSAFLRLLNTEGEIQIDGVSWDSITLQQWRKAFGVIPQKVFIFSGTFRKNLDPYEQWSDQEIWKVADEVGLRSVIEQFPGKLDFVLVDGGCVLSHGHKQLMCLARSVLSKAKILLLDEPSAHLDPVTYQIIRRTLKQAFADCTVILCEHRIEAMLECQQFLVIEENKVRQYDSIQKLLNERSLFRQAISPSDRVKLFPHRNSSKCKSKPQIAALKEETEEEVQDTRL
T5 sequence (P13569 whole entry D110H): as the sequence (P13569 whole entry S549N) above, with D110H, N549S counted along it
T8 sequence (P13569 whole entry S1255P): as the sequence (P13569 whole entry S549N) above, with N549S, S1255P counted along it

% Activity (ΔF508-CFTR): ++ (“++” means between 25% to 100%)
increase in chloride transport, relative to baseline chloride transport (human CFTR mutant P67L): greater than or equal to 10%
increase in chloride transport, relative to baseline chloride transport (human CFTR mutant D579G): greater than or equal to 10%
increase in chloride transport, relative to baseline chloride transport (human CFTR mutant G1244E): greater than 10 fold
increase in chloride transport, relative to baseline chloride transport (human CFTR mutant D110H): greater than or equal to 10%
increase in chloride transport, relative to baseline chloride transport (human CFTR mutant E56K): greater than or equal to 10%
increase in chloride transport, relative to baseline chloride transport (human CFTR mutant S1235R): greater than or equal to 10%
increase in chloride transport, relative to baseline chloride transport (human CFTR mutant S1255P): greater than 10 fold
increase in chloride transport, relative to baseline chloride transport (human CFTR mutant G178R): greater than 10 fold
increase in chloride transport, relative to baseline chloride transport (human CFTR mutant F1074L): greater than or equal to 10%
increase in chloride transport, relative to baseline chloride transport (human CFTR mutant R347H): greater than or equal to 10%
increase in chloride transport, relative to baseline chloride transport (human CFTR mutant S549N): greater than 10 fold
increase in chloride transport, relative to baseline chloride transport (human CFTR mutant S549R): greater than 10 fold
Structure (SMILES): CC(C)(C)c1cc(C(C)(C)C)c(NC(=O)c2c[nH]c3ccccc3c2=O)cc1O [Compound 1, N-[2,4-bis(1,1-dimethylethyl)-5-hydroxyphenyl]-1,4-dihydro-4-oxoquinoline-3-carboxamide]
